According to patent US20230025280A1, “PH RESPONSIVE COMPOSITIONS, FORMULATIONS, AND METHODS OF IMAGING A TUMOR” (ONCONANO MEDICINE, INC, priority 2019, published 2023):
Several values for one entry are separate records, joined by “and”; a condition that tells them apart may be missing. Identical values can stand only once. Entries after “also recorded” stand apart in the source; their conditions may differ.

Experiments:
[1] = tested on: solid cancers (HNSCC, breast cancer, esophageal cancer, or colorectal cancer); assay: Intraoperative fluorescence imaging of tumors (in vivo and back table; MFI, CNR, TBR); set-up: species or system human; details: for In Vivo CNR / In Vivo TBR: per patient, open field cameras; for Patient tumors showing Compound 1 fluorescence intraoperatively: 0.1 to 1.2 mg/kg, 24±8 h post dose; for Tumors visualized intraoperatively by Compound 1 fluorescence / Tumors that could not be visualized intraoperatively: Phase 1 overall
Description: During surgery, intraoperative images of Compound 1 fluorescence were obtained from the primary tumors and metastatic lymph nodes as well as the surrounding tissue which include normal noncancerous tissues using NIR camera(s). This may be in vivo and/or ex vivo imaging of resected specimens. If the surgeon considered it safe, up to a maximum of 10 study related biopsies were taken from the regions with Compound 1 fluorescence that were otherwise not suspected as tumor clinically. Feasibility to image tumors with Compound 1 using multiple NIR cameras was evaluated.
Intraoperative images and videos of “open surgery” were obtained using either the NOVADAQ SPY Elite or the SurgVision Explorer Air. The distance of the camera to the tumor was approximately 20 cm for the Explorer Air and 30 cm for the NOVADAQ SPY, according to manual instructions. The NOVADAQ SPY camera was only able to make fluorescent videos, which could be converted to images during post-processing. The settings for raw data acquisition for this camera were fixed. For the Explorer Air, attempt was made to use the same settings (exposure time and gain) for each patient to allow direct comparison between the images obtained from both the systems, however, depending on the amount of fluorescence visible during surgery, adjustments were needed in some cases due to saturation of the camera system. In some patients, the Olympus NIR laparoscope and Da Vinci Firefly camera systems were used when no open surgery was performed. Systems were used according to the manufacturer's manual.
First, pre-excision fluorescence images and/or movies of the tumor and surrounding areas were made. After surgical excision, images of the wound bed were obtained. In cases where a fluorescence region was visible in the wound bed, a biopsy was taken when feasible, and the excised specimen imaged on all sides on the back table in the operating room. If applicable, lymph nodes were imaged when possible in situ and on the back table, after which the wound bed of the lymph node dissection was imaged again.
Designated imaging study staff performed fluorescence imaging. The surgeon was blinded to the pre-excision imaging to avoid any bias on standard surgery, but was able to look at a second monitor for white-light images while performing the surgical procedure. The surgeon assisted in the wound bed and back table imaging. During the imaging procedure, the ambient light in the surgical theatre was switched off to prevent possible interaction with the fluorescence imaging procedure itself.
Images were processed using Fiji (ImageJ, version 2.0.0). Images were scaled on a per-patient basis, based on the maximum and minimum fluorescent intensity per pixel.
Immediately after excision, the whole specimen was imaged on all 6 resection planes (e.g., frontal, dorsal, lateral, medial, caudal and cranial) using both the designated intraoperative camera system as well as the LI-COR PEARL® Trilogy system within a maximum duration of 60 minutes after surgical excision of the specimen (intraoperative back table imaging). […] Specimens were inked with blue and black ink to mark resection planes.
A macroscopic correlation between visible white light of the tumor areas and corresponding fluorescence images was made. After drawing ROIs containing macroscopic tumor and ROIs containing background, MFI of both tumor and background areas were calculated. Fluorescence ratios (CNR, TBR) were calculated on a per patient basis (3 measurements per patient) following the calculations described above.

[2] = tested on: tumor positive surgical margins; assay: Fluorescence detection of tumor positive surgical margins versus final histopathology; type: in vivo, human; set-up: key to Histology vs. Fluorescence Correlation: TP = true positive; TN = true negative; FP = false positive; details: for Histology vs. Fluorescence Correlation / Surgical Margin by Fluorescence: per patient
Description: Tumor specimens were processed for histology according to the standard pathology practice used in clinical cancer care. Diagnosis on margins, selected histological features necessary for clinical decision making were provided. Fluorescence images were collected from the tumor and lymph node specimens and study-related biopsies. Margin width and number of positive margins were noted and correlated to the location of fluorescence in the margins. From this, the correlation between Compound 1 fluorescence and histopathology were calculated.
In a total of 24 patients (HNSCC:13; BC:11), 9 patients (HNSCC:6; BC:3) had histologically confirmed tumor positive surgical margins that were undetected during SOC surgery. Fluorescence guided margin assessment was performed on a per-patient basis. Compound 1 imaging visualized all of these surgical margin patients yielding 100% sensitivity. […] There were 5 of 15 false positives (specificity of 67%), in which fluorescence detected tissue was not confirmed to be tumor by histopathological assessment. 5 of 14 (36%) patients had fluorescent tissues that were negative for tumor (PPV: 64%).
In this Phase 1 study, the intraoperative and postoperative imaging data was used for a preliminary analysis of the diagnostic performance of Compound 1. Performance parameters such as MFI, CNR, and TBR were calculated in vivo and in tissue slices to characterize the ability of Compound 1 to delineate tumor tissue from background. Sensitivity and specificity for detecting tumor tissue from the adjacent normal tissue was evaluated using tissue specimen fluorescence and presented as a ROC curve. The sensitivity, specificity, and PPV of Compound 1 fluorescence in detecting pathology confirmed tumor positive margins were obtained at the patient level.

[3] = 24 patients (HNSCC:13; BC:11), per-patient

Substance: PEO90-140-b-P(DBA60-150-r-ICG0-3-r-AMA0-3) [Compound 1]
- In Vivo CNR ([1]; 0.1 mg/kg, HNSCC): 2.9 and 21.5 and 3.3
- In Vivo TBR ([1]; 0.1 mg/kg, HNSCC): 1.7 (2×) and 5.7
- In Vivo CNR ([1]; 0.5 mg/kg, BC): 2.5
- In Vivo TBR ([1]; 0.5 mg/kg, BC): 1.6
- In Vivo CNR ([1]; 0.5 mg/kg, HNSCC): 17.3 and 29.3
- In Vivo TBR ([1]; 0.5 mg/kg, HNSCC): 3.3 and 5.0
- In Vivo CNR ([1]; 0.8 mg/kg, BC): 12.7
- In Vivo TBR ([1]; 0.8 mg/kg, BC): 3.7
- In Vivo CNR ([1]; 0.8 mg/kg, HNSCC): 4.1
- In Vivo TBR ([1]; 0.8 mg/kg, HNSCC): 2.7
- Patients for whom in vivo (intraoperative) imaging was feasible ([1]; 1.2 mg/kg, Phase 1a and 1b, all tumor types): 11 of 18 and 11 of the 18
- Patients for whom in vivo imaging was feasible ([1]; 1.2 mg/kg, BC): 3 of 5
- In Vivo CNR ([1]; 1.2 mg/kg, BC): 7.8 and 9.2 and 1.3
- In Vivo TBR ([1]; 1.2 mg/kg, BC): 3.9 and 3.4 and 1.2
- Patients for whom in vivo imaging was feasible ([1]; 1.2 mg/kg, CRC): 1 of 3
- In Vivo CNR ([1]; 1.2 mg/kg, CRC): 7.4
- In Vivo TBR ([1]; 1.2 mg/kg, CRC): 2.4
- Patients for whom in vivo imaging was feasible ([1]; 1.2 mg/kg, EC): 0 of 3
- Patients for whom in vivo imaging was feasible ([1]; 1.2 mg/kg, HNSCC): 7 of 7
- In Vivo CNR ([1]; 1.2 mg/kg, HNSCC): 28.7 and 5.8 and 20.8 and 29.9 and 3.4 and 2.8 and 3.5
- In Vivo TBR ([1]; 1.2 mg/kg, HNSCC): 4.7 and 2.1 and 2.9 and 5.4 and 2.3 and 1.8 and 2.7
- Median in vivo TBR ([1]; 1.2 mg/kg, mucosal tumors (HNSCC), interquartile range of 1.4): 2.6
- Median in vivo CNR ([1]; 1.2 mg/kg, mucosal tumors (HNSCC), interquartile range of 17.6): 5.6
- Patients in whom fluorescence imaging was feasible (patients with viable tumors) ([1]; Phase 1, all 4 tumor types): 29 out of 30
- Patient tumors showing Compound 1 fluorescence intraoperatively ([1]; Phase 1a, BC): Two of the 7 and 2 of 7
- Patient tumors showing Compound 1 fluorescence intraoperatively ([1]; Phase 1a, HNSCC): 8 and 8 of 8
- CNR and TBR values ([1]; Phase 1a, in vivo tumor and postoperative specimen fluorescence): 2-15
- Intraoperative detection of intraluminal EC tumors ([1]; Phase 1b, 3 EC tumors, extraluminal imaging, 1.2 mg/kg): not detected
- Patient tumors in which Compound 1 fluoresced intraoperatively ([1]; Phase 1b, BC, 1.2 mg/kg): 3 of 4
- Patient tumors in which Compound 1 fluoresced intraoperatively ([1]; Phase 1b, CRC, 1.2 mg/kg): 2 of 3
- Patient tumors in which Compound 1 fluoresced intraoperatively ([1]; Phase 1b, HNSCC, 1.2 mg/kg): 5 of 5
- Patient tumors in which Compound 1 fluoresced intraoperatively ([1]; Phase 1b, all tumor types, 1.2 mg/kg): 10/15
- Tumors visualized intraoperatively by Compound 1 fluorescence ([1]; CRC): 2 of 3
- Tumors that could not be visualized intraoperatively ([1]; CRC (distant rectal tumor)): 1 of 3
- Tumors visualized intraoperatively by Compound 1 fluorescence ([1]; HNSCC): 13
- Tumors that could not be visualized intraoperatively ([1]; deeper seated BC): 6 of 11
- Tumors that could not be visualized intraoperatively ([1]; intraluminal EC): 2 of 3
- Tumors visualized intraoperatively by Compound 1 fluorescence ([1]; superficially seated BC): 5 of 11
- Intraoperative TBR and CNR values ([1]; all patients with feasible intraoperative imaging): high
- Histology vs. Fluorescence Correlation ([2]; 0.1 mg/kg, HNSCC): TP (2×) and TN
- Surgical Margin by Fluorescence ([2]; 0.1 mg/kg, HNSCC): Positive; also recorded: Negative
- Histology vs. Fluorescence Correlation ([2]; 0.3 mg/kg, BC): TP and TN (2×)
- Surgical Margin by Fluorescence ([2]; 0.3 mg/kg, BC): Positive; also recorded: Negative
- Histology vs. Fluorescence Correlation ([2]; 0.5 mg/kg, BC): TN
- Surgical Margin by Fluorescence ([2]; 0.5 mg/kg, BC): Negative
- Histology vs. Fluorescence Correlation ([2]; 0.5 mg/kg, HNSCC): TN and TP
- Surgical Margin by Fluorescence ([2]; 0.5 mg/kg, HNSCC): Negative; also recorded: Positive
- Histology vs. Fluorescence Correlation ([2]; 0.8 mg/kg, BC): TN and TP
- Surgical Margin by Fluorescence ([2]; 0.8 mg/kg, BC): Negative; also recorded: Positive
- Histology vs. Fluorescence Correlation ([2]; 0.8 mg/kg, HNSCC): FP
- Surgical Margin by Fluorescence ([2]; 0.8 mg/kg, HNSCC): Positive
- Histology vs. Fluorescence Correlation ([2]; 1.2 mg/kg, BC): TN (2×) and FP (2×) and TP
- Surgical Margin by Fluorescence ([2]; 1.2 mg/kg, BC): Negative; also recorded: Positive
- Histology vs. Fluorescence Correlation ([2]; 1.2 mg/kg, CRC): TN
- Surgical Margin by Fluorescence ([2]; 1.2 mg/kg, CRC): Negative
- Histology vs. Fluorescence Correlation ([2]; 1.2 mg/kg, EC): TN
- Histology vs. Fluorescence Correlation ([2]; 1.2 mg/kg, HNSCC): TP (3×) and FP (2×) and TN (2×)
- Surgical Margin by Fluorescence ([2]; 1.2 mg/kg, HNSCC): Positive; also recorded: Negative
- Fluorescence in patients with histologically negative margin ([2]; 2 of 3 EC and 1 of 3 CRC patients): negative
- PPV for surgical margin patients [2, 3]: 64%
- Sensitivity for tumor positive surgical margin patients [2, 3]: 100%
- Specificity for surgical margin patients [2, 3]: 67%
- Patients with false positive fluorescence margins ([2]; BC): 2
- Sensitivity for positive margin patients ([2]; BC): 100%
- Specificity for positive margin patients ([2]; BC): 75%
- Patients with false positive fluorescence margins ([2]; HNSCC): 3
- Sensitivity for positive margin patients ([2]; HNSCC): 100%
- Specificity for positive margin patients ([2]; HNSCC): 57%
- False negatives in surgical margin detection ([2]; HNSCC and BC): no false negatives
- False positives (fluorescent tissue not confirmed tumor by histopathology) ([2]; HNSCC and BC, per-patient): 5 of 15
- Histologically proven tumor positive surgical margins detected ([2]; HNSCC:6, BC:3): 9 out of 9 and 9
